Among the data in ChEMBL document CHEMBL3244250, “Bisamidines of 2,6-diaminoanthraquinone as antiamebic agents” (J Med Chem, 1978) are minimal effective dose and Activity values, retold here.

The source made the active and inactive calls. The rule behind the calls is not given here.

In series [1] the test system is Entamoeba histolytica. In words: Antimicrobial activity against Entamoeba histolytica NIH 200-mu hepatic forms infected in golden hamster assessed as survival rate administered qd for 5 days measured up to 14 days by microscopic analysis. The class given is functional. The settings on record: for minimal effective dose: read-out: MED.
In series [2] the test system is Entamoeba histolytica. In words: Antimicrobial activity against Entamoeba histolytica NIH 200-mu cecal forms infected in Wistar albino rat assessed as cure rate administered qd for 5 days by microscopic analysis. Format: functional. Conditions: for minimal effective dose: 120 h, read-out: MED.
Series [3] relates to Rattus norvegicus. In words: Toxicity in Wistar albino rat assessed as general listlessness up to 150 mg/kg administered qd for 5 days. The settings on record: in vivo, 120 h. Format: organism-based. More on the design: dose 150 mg/kg.
The test system of series [4] is Syrian golden hamster. In words: Toxicity in golden hamster assessed as general listlessness up to 150 mg/kg administered qd for 5 days. The class given is organism-based, Mesocricetus auratus. Details: dose 150 mg/kg. Conditions: in vivo, 120 h.
In series [5] the test system is Syrian golden hamster. Briefly: Toxicity in golden hamster assessed as reduction in water and food intake up to 150 mg/kg administered qd for 5 days. Format: organism-based, Mesocricetus auratus. Details: dose 150 mg/kg. Conditions: in vivo, 120 h.
For series [6], the system named is Rattus norvegicus. Briefly: Toxicity in Wistar albino rat assessed as reduction in water and food intake up to 150 mg/kg administered qd for 5 days. The class given is organism-based. Details: dose 150 mg/kg. Conditions: in vivo, 120 h.
The subject of series [7] is Salmonella typhimurium. In words: Mutagenic activity in Salmonella typhimurium by Ames test. The settings on record: salmonella enterica subsp. enterica serovar typhimurium. Format: toxicity, organism-based. (The Ames test uses bacterial strains that need an amino acid and regain growth without it when mutated back.)
In series [8] the test system is Syrian golden hamster. Briefly: Toxicity in golden hamster assessed as reduction in water and food intake administered qd for 5 days. Format: organism-based, Mesocricetus auratus. Conditions: in vivo, 120 h.
The subject of series [9] is Syrian golden hamster. In words: Toxicity in golden hamster assessed as general listlessness administered qd for 5 days. The class given is organism-based, Mesocricetus auratus. The settings on record: in vivo, 120 h.
The test system of series [10] is Rattus norvegicus. Briefly: Toxicity in Wistar albino rat assessed as general listlessness administered qd for 5 days. The class given is organism-based. The settings on record: in vivo, 120 h.
Series [11] concerns Rattus norvegicus. Briefly: Toxicity in Wistar albino rat assessed as reduction in water and food intake administered qd for 5 days. The class given is organism-based. Conditions: in vivo, 120 h.

For `CCC/C(=N\c1ccc2c(c1)C(=O)c1ccc(/N=C(\CCC)N(C)C)cc1C2=O)N(C)C`, the minimal effective dose was found to be 50 mg/kg in series [1] and 20 mg/kg in [2].
For `C/C(=N\c1ccc2c(c1)C(=O)c1ccc(/N=C(\C)N3CCCCC3)cc1C2=O)N1CCCCC1`, the Activity result in [3], in series [4], in series [5] and in series [6] was “Non-toxic” throughout. For the same compound, the results for the minimal effective dose in series [1] and in series [2] were 100 mg/kg and 50 mg/kg, respectively.
Regarding `CN(C)/C(=N/c1ccc2c(c1)C(=O)c1ccc(/N=C(\C3CCC3)N(C)C)cc1C2=O)C1CCC1`, the Activity entry in series [7] is “Non-toxic”. The minimal effective dose in [1] was found to be 50 mg/kg; in series [2], 20 mg/kg.
With `CCCCCCCCN(C)/C=N/c1ccc2c(c1)C(=O)c1ccc(/N=C/N(C)CCCCCCCC)cc1C2=O`, the Activity result in series [8], in [9], in series [10] and in series [11] was “Toxic” each time. In addition, in series [1], the result was inactive. In addition, in series [2], the minimal effective dose was found to be 50 mg/kg.
For `CCN(CC)/C(C)=N/c1ccc2c(c1)C(=O)c1ccc(/N=C(\C)N(CC)CC)cc1C2=O`, the Activity entry in series [3], in series [4], in series [5], in series [7] and in series [6] was “Non-toxic” each time. For the same compound, the minimal effective dose turned out to be 2.5 mg/kg in series [1] and 10 mg/kg in series [2].
With `O=C1c2ccc(/N=C/N3CCCCC3)cc2C(=O)c2ccc(/N=C/N3CCCCC3)cc21`, the Activity result in series [8], in series [9], in [10] and in [11] was “Toxic” in each case. For the same compound, the minimal effective dose was determined as 100 mg/kg in series [1] and 20 mg/kg in series [2].
For `O=C1c2ccc(N/C3=N/CCCCCC3)cc2C(=O)c2ccc(N/C3=N/CCCCCC3)cc21`, the Activity result in series [3], in series [4], in series [5] and in series [6] was “Non-toxic” each time. The outcome in series [1] was inactive. Further, the minimal effective dose in [2] stood at 20 mg/kg.
`CC/C(N)=N\c1ccc2c(c1)C(=O)c1ccc(/N=C(/N)CC)cc1C2=O`: the Activity result in series [3], in [4], in [5] and in series [6] was “Non-toxic” in each case. Further, the result in [1] and in [2] was inactive.
Regarding `CN(C)/C=N\c1cccc2c1C(=O)c1cccc(/N=C\N(C)C)c1C2=O`, the outcome in [1] and in series [2] was inactive.
As for `CCN(CC)/C(=N/c1ccc2c(c1)C(=O)c1ccc(/N=C(\C3CC3)N(CC)CC)cc1C2=O)C1CC1`, the outcome in [1] was inactive. Further, in [2], the minimal effective dose is 20 mg/kg.
Regarding `CN(C)/C=N/c1ccc2c(c1)C(=O)c1ccccc1C2=O`, the Activity result in series [8], in [9], in series [10] and in [11] was “Toxic” each time. The result in series [1] and in [2] was inactive.
As to `CCCCN(C)/C(CC)=N/c1ccc2c(c1)C(=O)c1ccc(/N=C(\CC)N(C)CCCC)cc1C2=O`, the Activity result in series [3], in series [4], in [5] and in [6] was “Non-toxic” throughout. Besides, the minimal effective dose in series [1] stood at 50 mg/kg; in series [2], 20 mg/kg.
Consider `CC(C)C/C(=N\c1ccc2c(c1)C(=O)c1ccc(/N=C(\CC(C)C)N(C)C)cc1C2=O)N(C)C`, for which the minimal effective dose was found to be 50 mg/kg in series [1] and 20 mg/kg in series [2].
Turning to `CN(C)/C=N/c1ccc2c(c1)C(=O)c1ccc(/N=C/N(C)C)cc1C2=O`, the Activity result in series [8], in series [9], in [10] and in series [11] was “Toxic” in each case. Besides, the minimal effective dose in [1] was found to be 10 mg/kg; in series [2], 20 mg/kg.
Take `CC/C(=N\c1ccc2c(c1)C(=O)c1ccc(/N=C(\CC)N(C)C)cc1C2=O)N(C)C`: the Activity entry in series [3], in [4], in series [5] and in series [6] was “Non-toxic” in each case. In addition, the minimal effective dose came out at 2.5 mg/kg in series [1] and 10 mg/kg in series [2].
In the case of `CCN/C(C)=N/c1ccc2c(c1)C(=O)c1ccc(/N=C(\C)NCC)cc1C2=O`, the Activity entry in series [3], in series [4], in [5] and in [6] was “Non-toxic” throughout. For the same compound, the outcome in series [1] was inactive. Also, the minimal effective dose in series [2] amounted to 10 mg/kg.
With `CC/C(=N\c1ccc2c(c1)C(=O)c1ccc(/N=C(\CC)N3CCN(C)CC3)cc1C2=O)N1CCN(C)CC1`, the Activity entry in series [3], in series [4], in series [5] and in series [6] was “Non-toxic” throughout. The outcome in [1] was inactive. In [2], the minimal effective dose was found to be 20 mg/kg.
As for `CC(C)N(/C=N/c1ccc2c(c1)C(=O)c1ccc(/N=C/N(C(C)C)C(C)C)cc1C2=O)C(C)C`, the Activity result in series [8], in series [9], in [10] and in [11] was “Toxic” each time. Moreover, the minimal effective dose was determined as 100 mg/kg in [1] and 20 mg/kg in series [2].
Turning to `CCN(CC)/C(C)=N\c1ccc(/N=C(/C)N(CC)CC)c2c1C(=O)c1ccccc1C2=O`, the outcome in [1] and in series [2] was inactive.
On to `CN(C)/C(=N/c1ccc2c(c1)C(=O)c1ccc(/N=C(\c3ccc(Cl)cc3)N(C)C)cc1C2=O)c1ccc(Cl)cc1`, for which the Activity result in series [7] is “Non-toxic”. In addition, the minimal effective dose is 50 mg/kg in series [1] and 20 mg/kg in series [2].
Turning to `CN(C)/C(=N/c1ccc2c(c1)C(=O)c1ccc(/N=C(\C3CC3)N(C)C)cc1C2=O)C1CC1`, in [7], the Activity entry is “Non-toxic”. The minimal effective dose in [1] was found to be 50 mg/kg; in [2], 10 mg/kg.
In the case of `CC/C(=N\c1ccc2c(c1)C(=O)c1ccc(/N=C(\CC)N3CCCCC3)cc1C2=O)N1CCCCC1`, the Activity result in series [3], in [4], in [5] and in series [6] was “Non-toxic” throughout. The outcome in series [1] was inactive. The minimal effective dose in [2] turned out to be 50 mg/kg.
In the case of `CCN(CC)/C(=N/c1ccc2c(c1)C(=O)c1ccc(/N=C(/N(CC)CC)C(C)(C)C)cc1C2=O)C(C)(C)C`, the minimal effective dose in series [1] was found to be 50 mg/kg; in series [2], 20 mg/kg.
On to `CCN(C(C)=O)/C(C)=N/c1ccc2c(c1)C(=O)c1ccc(/N=C(\C)N(CC)C(C)=O)cc1C2=O`, for which the Activity entry in series [3], in series [4], in [5] and in [6] was “Non-toxic” throughout. The outcome in series [1] and in series [2] was inactive.
As to `C/C(N)=N\c1ccc2c(c1)C(=O)c1ccc(/N=C(\C)N)cc1C2=O`, the Activity result in series [3], in series [4], in series [5] and in series [6] was “Non-toxic” each time. The result in [1] was inactive. In addition, in series [2], the minimal effective dose was found to be 10 mg/kg.
`CCS(=O)(=O)CCn1c([N+](=O)[O-])cnc1C` [TINIDAZOLE]: the figures for the minimal effective dose in series [1] and in series [2] were 25 mg/kg and 5 mg/kg, respectively.
Taken in the same sequence, the figures for `O=[N+]([O-])c1cncn1CCN1CCOCC1` [NIMORAZOLE] were 100 mg/kg and 20 mg/kg.
In the case of `O=C1c2ccc(/N=C(\c3ccccc3)N3CCCCC3)cc2C(=O)c2ccc(/N=C(\c3ccccc3)N3CCCCC3)cc21`, the result in series [1] was inactive. Also, in series [2], the minimal effective dose came to 10 mg/kg.
Regarding `CN/C(C)=N/c1ccc2c(c1)C(=O)c1ccc(/N=C(\C)NC)cc1C2=O`, the Activity entry in [3], in [4], in series [5] and in series [6] was “Non-toxic” each time. Moreover, the outcome in [1] was inactive. The minimal effective dose in series [2] came to 10 mg/kg.
Turning to `CN(C)/C=N\c1ccc(/N=C\N(C)C)c2c1C(=O)c1ccccc1C2=O`, the result in series [1] and in series [2] was inactive.
In the case of `Cc1ncc([N+](=O)[O-])n1CCO` [METRONIDAZOLE], the minimal effective dose in series [1] and in [2] was 10 mg/kg throughout.
For the compound `C/C(=N\c1ccc2c(c1)C(=O)c1ccc(/N=C(\C)N(C)C)cc1C2=O)N(C)C`, the Activity result in series [3], in series [4], in series [5], in series [7] and in series [6] was “Non-toxic” each time. Moreover, the minimal effective dose in series [1] is 2.5 mg/kg; in [2], 5 mg/kg.
On to `C/C(=N/c1cccc2c1C(=O)c1cccc(/N=C(/C)N(C)C)c1C2=O)N(C)C`, for which the outcome in series [1] and in series [2] was inactive.
